Experimental findings from patent US5229413A, “Compositions containing indole-2-carboxylate compounds for treatment of CNS disorders” (G. D. Searle & Co., priority 1992, dated 1993) are described below.

Each structure is given as a SMILES string. Read-outs that look alike come from different tables or passages of the source.

The target of assay [1] is N-methyl-D-aspartate (NMDA) receptor site. The assay is described as follows: Glutamate (NMDA) binding assay, L-[3H]glutamate, synaptic plasma membranes. Conditions: L-[3H]glutamate 12.5 nM, pH 7.4, 0-4° C.; read-out: Ki apparent, NMDA. As for the experimental part:
The purpose of this assay is to determine the binding affinity of a compound of Formula I for the N-methyl-D-aspartate (NMDA) receptor site. This procedure was carried out as follows:
Synaptic plasma membranes (SPM) were prepared as previously described [Monahan, J. B. and Michel, J., "Identification and Characterization of an N-methyl-D-aspartate-specific L-[^3 H]glutamate Recognition Site in Synaptic Plasma Membranes, J. Neurochem., 48, 1699-1708 (1987)]. The SPM were stored at a concentration of 10-15 mg/ml in 0.32 M sucrose, 0.5 mM EDTA, 1 mM MgSO4, 5 mM Tris/SO4, pH 7.4, under liquid nitrogen. The identity and purity of the subcellular fractions were confirmed by both electron microscopy and marker enzymes. Protein concentrations were determined by using a modification of the method of Lowry [Ohnishi, S. T. and Barr, J. K., "A Simplified Method of Quantitating Proteins Using the Biuret and Phenol Reagents", Anal. Biochem., 86, 193-197 (1978)]. The SPM were thawed at room temperature, diluted twenty-fold with 50 mM Tris/acetate, pH 7.4, incubated at 37° C. for 30 minutes, and centrifuged at 100,000 g for 15 minutes. The dilution, incubation, and centrifugation was repeated a total of three times. This general method involved adding 12.5 nM of the L-[^3 H]glutamate radioligand to the appropriate concentration of the test compound and initiating the assay by the addition of ice cold SPM (0.2-0.45 mg). The binding assays were performed in 1.5 ml centrifuge tubes with the total volume adjusted to 1.0 ml. Additions of test compounds were made in 50 mM Tris/acetate, pH 7.4 and incubations were carried out at 0°-4° C. The incubation time for the NMDA binding assay was 10 minutes. To terminate the incubation, the samples were centrifuged for 15 minutes at 12,000 g and 4° C. in a Beckman Microfuge 12. The supernatant was aspirated and the pelleted membranes dissolved in Beckman Ready-Protein scintillation cocktail and the samples counted on a Beckman LS 5800 or 3801 liquid scintillation counter with automatic corrections for quenching and counting efficiency. Nonspecific binding was defined as the residual binding in the presence of 0.5 mM NMDA and was typically 15-25% of the total binding in the NMDA binding assay. Radioligand binding to the SPM was analyzed using Scatchard and Hill transformations and the Ki values of the compounds determined using logit-log transformations. Calculations and regression analysis were performed using templates developed for Lotus 1, 2, 3 as previously described [Pullan, L. M. "Automated Radioligand Receptor Binding Analysis with Templates for Lotus", Computer Appln. Biosci., 3 131 (1987)]. Binding results are reported in Table II for example compounds of the invention.

Assay [2] deals with T1, strychnineinsensitive glycine recognition site (NMDA receptor-ion channel complex) (Rattus norvegicus, UniProt P35439).
T1 construct: Synaptic plasma membranes (SPM) were prepared from rat forebrain; from tissue; host or cells: rat forebrain synaptic plasma membranes
Nature of the assay: Glycine binding assay, [3H]glycine, synaptic plasma membranes. The procedure: Synaptic plasma membranes (SPM) were prepared from rat forebrain and stored as previously described [J. B. Monahan and J. Michel, J. Neurochem, 48, 1699-1708 (1987)]. Frozen membranes were thawed and diluted 1:20 with 0.04% triton X-100 in 50 mM tris/acetate (pH 7.4). Following incubation at 37° C. for 30 min., the SPM were collected by centrifugation at 95,000 X g for 15 min. The pellet was resuspended in 50 mM tris/acetate (pH 7.4, triton-free) and hand-homogenized five times. The membranes were again centrifuged as above. The pellet was washed two additional times with 50 mM tris/acetate (without homogenization) and centrifuged. The final pellet was resuspended with homogenization in 50 mM tris/acetate.
In the general receptor binding assay procedure, 10 nM [^3 H]glycine was added to the appropriate concentration of the test compounds and the assay initiated by the addition of 0.2-0.4 mg of ice cold SPM. The assay, which was done in 1.5 ml centrifuge tubes, was adjusted to a total volume of 1.0 ml with all additions being made in 50 mM tris/ acetate, pH 7.4 at 4° C. After a 10 minute incubation at 2° C., the samples were centrifuged for 15 min. at 12,000 g (4° C.) in a Beckman Microfuge 12. The supernatant was aspirated and the tube tip containing the pelleted membranes cut off and agitated in 0.5 ml of Beckman BTS-450 tissue solubilizer for a minimum of 6 hours at room temperature. Beckman MP scintillation cocktail (5 ml) containing 7 ml/liter acetic acid was then added and the samples counted on a Beckman LS 5800 liquid scintillation counter with automatic corrections for quenching and counting efficiency. […] The binding of [^3 H]glycine to the SPM was analyzed using Scatchard and Hill transformations and the Ki for other compounds was determined using logit-log analysis. Calculations and regression analysis were performed using templates developed for Lotus 123 as previously described [Pullan et al, Id.].

Where [3] appears, read: 10 nM [3H]glycine, pH 7.4, rat forebrain SPM, read-out: Ki apparent, Gly.

Take `O=C(O)CCCc1c(C(=O)O)[nH]c2ccccc12` [compound 8, 2-carboxy-3-indolebutanoic acid]: the Ki in assay [1] and in assay [2] (setting [3]) was greater than 100 µM throughout.

For `Cc1ccc2[nH]c(C(=O)O)cc2c1` [compound 17, 5-methylindole-2-carboxylic acid], the Ki in assay [1] and in assay [2] (setting [3]) was greater than 100 µM throughout.

`O=C(Cc1c(C(=O)O)[nH]c2cc(Cl)ccc12)NCCO` [compound 39, 2-carboxy-6-chloro-3-indoleacetic acid 3-(2-hydroxyethyl)amide]: the Ki in assay [2] (setting [3]) was determined as 11.4 µM. Still for that read-out and setting: in the case of `CCOC(=O)Cc1c(C(=O)OCCCN(C)C)[nH]c2cc(Cl)ccc12` [compound 34, ethyl 2-(3-dimethylaminopropyloxycarbonyl)-6-chloro-3-indole acetate] it was greater than 30 µM; in that of `CCOC(=O)c1[nH]c2cc(Cl)ccc2c1CC(N)=O` [compound 55, 2-carboethoxy-6-chloro-3-indoleacetamide], greater than 30 µM. Consider `O=C(O)Cc1c(C(=O)O)[nH]c2ccc(Cl)cc12` [Compound No. 3, 2-carboxy-5-chloro-3-indoleacetic acid], for which the Ki in assay [1] is greater than 100 µM; in assay [2] (setting [3]), 11.7 µM. For `CCOC(=O)Cc1c(C(=O)OCC)[nH]c2ccccc12` [compound 19, ethyl 2-carboethoxy-3-indoleacetate], in that order: greater than 100 µM and greater than 100 µM. As for `O=C(O)c1[nH]c2ccccc2c1CCO` [compound 20, 3-(2-hydroxyethyl)indole-2-carboxylic acid], in assay [2] (setting [3]), the Ki is greater than 10 µM. On the same count and under the same terms, as for `O=C(O)Cc1c(CO)[nH]c2cc(Cl)ccc12`, the figure is greater than 30 µM. Take `O=C1OCCc2c1[nH]c1ccccc21` [compound 23, 4,9-dihydropyrano[3,4-b]indol-1(3H)-one]: the Ki in assay [2] (setting [3]) was greater than 100 µM. Regarding `O=C(O)CCc1c(C(=O)O)[nH]c2ccccc12` [compound 7, 2-carboxy-3-indolepropanoic acid], the Ki in assay [1] and in assay [2] (setting [3]) was greater than 100 µM each time. With `O=C(O)c1cc2cc(Cl)ccc2[nH]1` [compound 14, 5-chloroindole-2-carboxylic acid], the Ki in assay [1] and in assay [2] (setting [3]) was greater than 100 µM throughout.

With `O=C(O)c1[nH]c2ccccc2c1CO` [Compound No. 12, 3-hydroxymethylindole-2-carboxylic acid], the Ki in assay [1] and in assay [2] (setting [3]) was greater than 100 µM throughout.

On to `COc1ccc2[nH]c(C(=O)O)cc2c1` [compound 18, 5-methoxyindole-2-carboxylic acid], for which the Ki in assay [1] and in assay [2] (setting [3]) was greater than 100 µM in each case. In the case of `CN(C)CCNC(=O)Cc1c(C(=O)NCCN(C)C)[nH]c2cc(Cl)ccc12` [compound 54, 2-carboxy-6-chloro-3-indole acetic acid bis-2-dimethyl aminoethylamide], the Ki in assay [2] (setting [3]) is greater than 30 µM. As to `O=C(O)Cc1c(C(=O)O)[nH]c2ccc(Br)cc12` [compound 4, 5-bromo-2-carboxy-3-indoleacetic acid], the Ki is greater than 100 µM in assay [1] and 26.2 µM in assay [2] (setting [3]). Consider `CCOC(=O)Cc1c(CO)[nH]c2cc(Cl)ccc12` [compound 52, ethyl 6-chloro-2-hydroxymethyl-3-indoleacetate], for which the Ki in assay [2] (setting [3]) was greater than 30 µM.

Take `CC(=O)Cc1c(C(=O)O)[nH]c2ccccc12` [compound 25, 3-(2-oxopropyl)indole-2-carboxylic acid]: the Ki in assay [2] (setting [3]) is greater than 30 µM. Consider `CCC(C(=O)O)c1c(C(=O)O)[nH]c2ccccc12` (stereo not drawn) [compound 10, 2-(2-carboxy-3-indole)butanoic acid], for which the Ki in assay [1] and in assay [2] (setting [3]) was greater than 100 µM each time. For the compound `O=C(O)c1[nH]c2cc(Cl)ccc2c1O` [Compound No. 11, 6-chloro-3-hydroxyindole-2-carboxylic acid], the Ki in assay [1] and in assay [2] (setting [3]) was greater than 100 µM throughout. `O=C(O)c1cc2ccccc2[nH]1` [compound 13, indole-2-carboxylic acid]: the Ki in assay [1] and in assay [2] was greater than 100 µM each time. `CN(C)C(=O)Cc1c(C(=O)O)[nH]c2cc(Cl)ccc12` [compound 36, 2-carboxy-6-chloro-3-indole acetic acid 3-dimethyl amide]: in assay [2] (setting [3]), the Ki was greater than 30 µM.

Consider `Cn1c(C(=O)O)c(CC(=O)O)c2ccccc21` [compound 2, 2-carboxy-1-methyl-3-indoleacetic acid], for which the Ki in assay [1] and in assay [2] (setting [3]) was greater than 100 µM throughout. Consider `CCOC(=O)Cc1c(C=O)[nH]c2cc(Cl)ccc12` [compound 51, ethyl 6-chloro-2-formyl-3-indole acetate], for which the Ki in assay [2] (setting [3]) was greater than 30 µM. The same measure, in the same setting: as for `CCOC(=O)Cc1c(C(=O)OCC)[nH]c2cc(Cl)ccc12` [compound 22, ethyl 2-carboethoxy-6-chloro-3-indoleacetate], the figure is greater than 100 µM. Consider `O=C(O)c1cc2cc(Br)ccc2[nH]1` [compound 16, 5-bromoindole-2-carboxylic acid], for which the Ki in assay [1] and in assay [2] (setting [3]) was greater than 100 µM throughout. For the compound `CCOC(=O)c1[nH]c2cc(Cl)ccc2c1CCCl` [compound 47, ethyl 6-chloro-3-(2-chloroethyl)-2-indolecarboxylate], the Ki in assay [2] (setting [3]) was greater than 10 µM.

On to `CCCOC(=O)Cc1c(C(=O)O)[nH]c2cc(Cl)ccc12` [compound 42, propyl 2-carboxy-6-chloro-3-indoleacetate], for which the Ki in assay [2] (setting [3]) was determined as 7 µM. The same measure, in the same setting: as for `O=C(O)c1cc2c(C(=O)O)cccc2[nH]1` [compound 26, 4-carboxyindole-2-carboxylic acid], the figure is greater than 20 µM; as for `O=C(O)Cc1c(C(=O)O)[nH]c2c(Cl)cccc12` [compound 29, 2-carboxy-7-chloroindole-3-acetic acid], greater than 30 µM. The same measure, in the same setting: in the case of `CN(C)CCCNC(=O)Cc1c(C(=O)O)[nH]c2cc(Cl)ccc12` [compound 40, 2-carboxy-6-chloro-3-indoleacetic acid 3-(3-dimethylaminopropyl)amide] it was greater than 30 µM; in that of `O=C(O)c1cc2c(O)cccc2[nH]1` [compound 28, 4-hydroxyindole-2-carboxylic acid], greater than 20 µM. Same read-out and setting: in the case of `O=C(Cc1c(C(=O)O)[nH]c2cc(Cl)ccc12)NCCc1ccccc1` [compound 45, 2-carboxy-6-chloro-3-indoleacetic acid 3-phenylethylamide] it was 0.47 µM.

For the compound `O=Cc1c(C(=O)O)[nH]c2ccccc12` [compound 24, 3-formylindole-2-carboxylic acid], the Ki in assay [1] was greater than 100 µM. Regarding `Cc1cc2c(CC(=O)O)c(C(=O)O)[nH]c2cc1Cl` [compound 21, 2-carboxy-6-chloro-5-methylindole-3-acetic acid], in assay [2] (setting [3]), the Ki was greater than 10 µM.

In the case of `O=C(O)c1cc2c(OCc3ccccc3)cccc2[nH]1` [compound 27, 4-benzyloxyindole-2-carboxylic acid], in assay [2] (setting [3]), the Ki was greater than 20 µM. Consider `O=C(O)c1cc2cc(F)ccc2[nH]1` [compound 15, 5-fluoroindole-2-carboxylic acid], for which, in assay [1], the Ki was greater than 100 µM.
